From US7176224B2, “Oxazolyl-aryloxyacetic acid derivatives and their use as PPAR agonists” (Eli Lilly and Company, priority 2000, dated 2007)

Experiments:
huPPARα = experiment: Cotransfection assay in CV-1 cells, luciferase reporter; type: cell-based, human; conditions: GAL4 chimeric system, relative to PPARα agonist reference molecule
Description: […] binding (ABCD binding) was carried out using SPA technology with PPAR receptors. Tritium-labeled PPARα and PPARγ agonists were used as radioligands for generating displacement curves and IC50 values with compounds of the invention. Cotransfection assays were carried out in CV-1 cells. The reporter plasmid contained an acylCoA oxidase (AOX) PPRE and TK promoter upstream of the luciferase reporter cDNA. Appropriate PPARs and RXRα were constitutively expressed using plasmids containing the CMV promoter. For PPARα and […], interference by endogenous […] in CV-1 cells was an issue. In order to eliminate such interference, a GAL4 chimeric system was used in which the DNA binding domain of the transfected PPAR was replaced by that of GAL4, and the GAL4 response element was utilized in place of the AOX PPRE. Cotransfection efficacy was determined relative to PPARα agonist and […] reference molecules. Efficacies were determined by computer fit to a concentration-response curve, or in some cases at a single high concentration of agonist (10 μM). For binding or cotransfection studies with receptors other than PPARs, similar assays were carried out using appropriate ligands, receptors, reporter constructs, etc., for that particular receptor.
These studies were carried out to evaluate the ability of compounds of the invention to bind to and/or activate various nuclear transcription factors, particularly huPPARα (“hu” indicates “human”) and huPPARγ. These studies provide in vitro data concerning efficacy and selectivity of compounds of the invention. Furthermore, binding and cotransfection data for compounds of the invention were compared with corresponding data for marketed compounds that act on either huPPARα or huPPARγ.

Hu apoAI transgenic mice = experiment: Evaluation of triglyceride and cholesterol levels in hu apoAI transgenic mice; type: in vivo; conditions: 30 mg/kg oral gavage daily for 7 days; serum HDLc FPLC area under the curve, over mice receiving vehicle
Description: Five to six week old male mice, transgenic for human apoAI [C57B1/6-tgn(apoa1) 1rub, Jackson Laboratory, Bar Harbor, Me.] were housed five per cage (10″×20″8″ with aspen chip bedding) with food (Purina 5001) and water available at all times. After an acclimation period of 2 weeks, animals were individually identified by ear notches, weighed, and assigned to groups based on body weight. Beginning the following morning, mice were dosed daily by oral gavage for 7 days using a 20 gauge, 1½″ curved disposable feeding needle (Popper & Sons). Treatments were test compounds (30 mg/kg), a positive control (fenofibrate, 100 mg/kg) or vehicle [1% carboxymethylcellulose (w/v)/0.25% Tween80 (w/v); 0.2 ml/mouse]. Prior to termination on day 7, mice were weighed and dosed. Three hours after dosing, animals were anesthetized by inhalation of isoflurane (2–4%; Abbott Laboratories, Chicago, Ill.) and blood obtained via cardiac puncture (0.7–1.0 ml). Whole blood was transferred to serum separator tubes (Vacutainer SST), chilled on ice, and permitted to clot. Serum was obtained after centrifugation at 4° C. and frozen until analysis for triglycerides, total cholesterol, compound levels, and serum lipoprotein profile by fast protein liquid chromatography (FPLC) coupled to an inline detection system. After sacrifice by cervical dislocation, the liver, heart and epididymal fat pads were excised and weighed.
The animals dosed with vehicle had average triglycerides values of 60–80 mg/dl, which were reduced by the positive control fenofibrate (33–58 mg/dl with a mean reduction of 37%). The animals dosed with vehicle had average total serum cholesterol values of 140–180 mg/dl, which were increased by fenofibrate (190–280 mg/dl, with a mean elevation of 41%). […] increased the amount of HDLc (68–96 v-sec with a mean percent increase of 48%).
Glucose was measured colorimetrically using commercially purchased reagents (Sigma #315-500). According to the manufacturers, the procedures were modified from published work (McGowan, M. W., Artiss, J. D., Strandbergh, D. R. & Zak, B. Clin Chem, 20:470–5 (1974) and Keston, A. Specific colorimetric enzymatic analytical reagents for glucose. Abstract of papers 129th Meeting ACS, 31C (1956).); and depend on the release of a mole of hydrogen peroxide for each mole of analyte, coupled with a color reaction first described by Trinder (Trinder, P. Determination of glucose in blood using glucose oxidase with an alternative oxygen acceptor. Ann Clin Biochem, 6:24 (1969)). The absorbance of the dye produced is linearly related to the analyte in the sample. The assays were further modified in our laboratory for use in a 96 well format. Standards (Sigma #339-11, Sigma #16-11, and Sigma #CC0534 for glucose, triglycerides and total cholesterol, respectively), quality control plasma (Sigma # A2034), and samples (2 or 5 μl/well) were measured in duplicate using 200 μl of reagent. An additional aliquot of sample, pipetted to a third well and diluted in 200 μl water, provided a blank for each specimen. Plates were incubated at room temperature (18, 15, and 10 minutes for glucose, triglycerides and total cholesterol, respectively) on a plate shaker (DPC Micormix 5) and absorbance read at 500 nm (glucose and total cholesterol) or 540 nm (triglycerides) on a plate reader (Wallac Victor 1420). Sample absorbances were compared to a standard curve (100–800, 10–500, and 100–400 mg/dl for glucose, triglycerides and total cholesterol, respectively). Values for the quality control sample were always within the expected range and the coefficient of variation for samples was below 10%. All samples from an experiment were assayed at the same time to minimize inter-assay variability.
Serum lipoproteins were separated and cholesterol quantitated with an in-line detection system. Sample was applied to a Superose® 6 HR 10/30 size exclusion column (Amersham Pharmacia Biotech) and eluted with phosphate buffered saline-EDTA at 0.5 ml/min. […]

Compound: Cc1oc(-c2cccc(-c3ccc(F)cc3)c2)nc1CCOc1ccc(CC(C)(Oc2ccccc2)C(=O)O)cc1 (centres unmarked) [Example 4, 3-(4-{2-[2-(4′-Fluorobiphenyl-3-yl)-5-methyloxazol-4-yl]ethoxy}phenyl)-2-methyl-2-phenoxypropionic acid]
- huPPARα CTF Efficacy (huPPARα): 38%
- % HDLc Increase (Hu apoAI transgenic mice): 40.4%
